These compounds were tested against recombinant HCV NS5B (HCV RNA-dependent RNA polymerase) (Hepatitis C virus genotype 1b, UniProt P26663) (assay: biochemical). Settings: related polymerase activity (Example 27 list); read-out: IC50.
recombinant HCV NS5B (HCV RNA-dependent RNA polymerase), sequence (P26663 2420-3010 limits assumed): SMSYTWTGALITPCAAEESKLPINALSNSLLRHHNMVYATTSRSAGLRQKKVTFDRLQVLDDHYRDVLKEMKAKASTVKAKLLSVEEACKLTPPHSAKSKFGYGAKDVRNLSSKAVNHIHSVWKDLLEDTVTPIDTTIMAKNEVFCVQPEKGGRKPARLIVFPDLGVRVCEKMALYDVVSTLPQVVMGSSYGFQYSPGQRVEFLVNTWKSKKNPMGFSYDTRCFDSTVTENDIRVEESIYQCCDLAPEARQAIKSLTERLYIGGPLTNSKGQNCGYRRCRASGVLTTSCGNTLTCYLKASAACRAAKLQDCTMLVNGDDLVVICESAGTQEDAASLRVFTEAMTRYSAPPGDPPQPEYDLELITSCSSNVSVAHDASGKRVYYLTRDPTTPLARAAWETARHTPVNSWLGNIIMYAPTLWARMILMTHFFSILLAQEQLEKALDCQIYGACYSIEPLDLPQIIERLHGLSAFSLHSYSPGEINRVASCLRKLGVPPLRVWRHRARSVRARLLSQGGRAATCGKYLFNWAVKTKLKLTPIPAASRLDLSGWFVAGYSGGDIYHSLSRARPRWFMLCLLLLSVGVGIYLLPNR

Row | SMILES | IC50
1 | O=C(Nc1cc(-c2ccccc2)sc1C(=O)O)Oc1ccc(Cl)cc1 [Compound 33, 3-(4-CHLORO-PHENOXYCARBONYLAMINO)-5-PHENYL-THIOPHENE-2-CARBOXYLIC ACID] | 5 to 20 µM
2 | O=C(O)c1sc(-c2ccccc2)cc1NS(=O)(=O)c1ccc(Cl)c(Cl)c1 [Compound 34, 3-(3,4-DICHLORO-BENZENESULFONYLAMINO)-5-PHENYL-THIOPHENE-2-CARBOXYLIC ACID] | 5 to 20 µM
3 | O=C(O)c1sc(-c2ccccc2)cc1NS(=O)(=O)c1ccccc1C(F)(F)F [Compound 35, 5-PHENYL-3-(2-TRIFLUOROMETHYL-BENZENESULFONYLAMINO)-THIOPHENE-2-CARBOXYLIC ACID] | > 20 µM
4 | O=C(O)c1sc(-c2ccccc2)cc1NS(=O)(=O)c1cnc(Cl)c(Br)c1 [Compound 36, 3-(5-BROMO-6-CHLORO-PYRIDINE-3-SULFONYLAMINO)-5-PHENYL-THIOPHENE-2-CARBOXYLIC ACID] | > 20 µM
5 | O=C(O)c1sc(-c2ccccc2)cc1NS(=O)(=O)c1ccc(Cl)s1 [Compound 37, 3-(5-CHLORO-THIOPHENE-2-SULFONYLAMINO)-5-PHENYL-THIOPHENE-2-CARBOXYLIC ACID] | < 5 µM
6 | Cc1c(S(=O)(=O)Nc2cc(-c3ccccc3)sc2C(=O)O)sc2ccc(Cl)cc12 [Compound 38, 3-(5-CHLORO-3-METHYL-BENZO[ B ]THIOPHENE-2-SULFONYLAMINO)-5-PHENYL-THIOPHENE-2-CARBOXYLIC ACID] | < 5 µM
7 | O=C(O)c1sc(-c2ccccc2)cc1NS(=O)(=O)c1ccc(Br)cc1 [Compound 39, 3-(4-BROMO-BENZENESULFONYLAMINO)-5-PHENYL-THIOPHENE-2-CARBOXYLIC ACID] | < 5 µM
8 | O=C(O)c1sc(-c2ccccc2)cc1NS(=O)(=O)c1cccc(Cl)c1 [Compound 40, 3-(3-CHLORO-BENZENESULFONYLAMINO)-5-PHENYL-THIOPHENE-2-CARBOXYLIC ACID] | < 5 µM
9 | Cc1nn(C)c(Cl)c1S(=O)(=O)Nc1cc(-c2ccccc2)sc1C(=O)O [Compound 41, 3-(5-CHLORO-1,3-DIMETHYL-1H-PYRAZOLE-4-SULFONYLAMINO)-5-PHENYL-THIOPHENE-2-CARBOXYLIC ACID] | 5 to 20 µM
10 | O=C(O)c1sc(-c2ccccc2)cc1NS(=O)(=O)c1cccc(Br)c1 [Compound 42, 3-(3-BROMO-BENZENESULFONYLAMINO)-5-PHENYL-THIOPHENE-2-CARBOXYLIC ACID] | 5 to 20 µM
11 | CC(C)c1ccc(S(=O)(=O)Nc2cc(-c3ccccc3)sc2C(=O)O)cc1 [Compound 43, 3-(4-ISOPROPYL-BENZENESULFONYLAMINO)-5-PHENYL-THIOPHENE-2-CARBOXYLIC ACID] | 5 to 20 µM
12 | O=C(O)c1sc(-c2ccccc2)cc1NS(=O)(=O)c1c(Cl)cccc1Cl [Compound 44, 3-(2,6-DICHLORO-BENZENESULFONYLAMINO)-5-PHENYL-THIOPHENE-2-CARBOXYLIC ACID] | < 5 µM
13 | O=C(O)c1sc(-c2ccccc2)cc1NS(=O)(=O)c1ccccc1[N+](=O)[O-] [Compound 45, 3-(2-NITRO-BENZENESULFONYLAMINO)-5-PHENYL-THIOPHENE-2-CARBOXYLIC ACID] | < 5 µM
14 | O=C(O)c1sc(-c2ccccc2)cc1NS(=O)(=O)c1ccc(-c2csnn2)s1 [Compound 46, 5-PHENYL-3-(5-[1,2,3]THIADIAZOL-4-YL-THIOPHENE-2-SULFONYLAMINO)-THIOPHENE-2-CARBOXYLIC ACID] | 5 to 20 µM
15 | O=C(O)c1sc(-c2ccccc2)cc1NS(=O)(=O)c1ccccn1 [Compound 47, 5-PHENYL-3-(PYRIDINE-2-SULFONYLAMINO)-THIOPHENE-2-CARBOXYLIC ACID] | > 20 µM
16 | O=C(O)c1sc(-c2ccccc2)cc1NCc1ccc(Cl)cc1Cl [Compound 48, 3-(2,4-DICHLORO-BENZYLAMINO)-5-PHENYL-THIOPHENE-2-CARBOXYLIC ACID] | < 5 µM
17 | O=C(O)c1sc(-c2ccccc2)cc1NS(=O)(=O)c1cccc(F)c1 [Compound 49, 3-(3-FLUORO-BENZENESULFONYLAMINO)-5-PHENYL-THIOPHENE-2-CARBOXYLIC ACID] | < 5 µM
18 | O=C(O)c1sc(-c2ccccc2)cc1NS(=O)(=O)c1cccc(C(F)(F)F)c1 [Compound 50, 5-PHENYL-3-(3-TRIFLUOROMETHYL-BENZENESULFONYLAMINO)-THIOPHENE-2-CARBOXYLIC ACID] | 5 to 20 µM
19 | COC(=O)c1sc(-c2ccccc2)cc1NC(=O)c1ccccc1C(=O)O [Compound 51, 3-(2-CARBOXY-BENZOYLAMINO)-5-PHENYL-THIOPHENE-2-CARBOXYLIC ACID METHYL ESTER] | 5 to 20 µM
20 | O=C(O)c1sc(-c2ccccc2)cc1NS(=O)(=O)c1ccc(C(F)(F)F)cc1 [Compound 52, 5-PHENYL-3-(4-TRIFLUOROMETHYL-BENZENESULFONYLAMINO)-THIOPHENE-2-CARBOXYLIC ACID] | < 5 µM
21 | O=C(O)c1sc(-c2ccccc2)cc1NS(=O)(=O)c1cc(F)ccc1F [Compound 53, 3-(2,5-DIFLUORO-BENZENESULFONYLAMINO)-5-PHENYL-THIOPHENE-2-CARBOXYLIC ACID] | < 5 µM
22 | N#Cc1ccccc1S(=O)(=O)Nc1cc(-c2ccccc2)sc1C(=O)O [Compound 54, 3-(2-CYANO-BENZENESULFONYLAMINO)-5-PHENYL-THIOPHENE-2-CARBOXYLIC ACID] | < 5 µM

Row | SMILES | IC50
23 | O=C(O)c1sc(-c2ccccc2)cc1NS(=O)(=O)c1cc(Cl)sc1Cl [Compound 55, 3-(2,5-DICHLORO-THIOPHENE-3-SULFONYLAMINO)-5-PHENYL-THIOPHENE-2-CARBOXYLIC ACID] | 5 to 20 µM
24 | Cc1ccccc1S(=O)(=O)Nc1cc(-c2cccs2)sc1C(=O)O [Compound 56, 4-(TOLUENE-2-SULFONYLAMINO)-[2,2′]BITHIOPHENYL-5-CARBOXYLIC ACID] | < 5 µM
25 | Cc1ccccc1S(=O)(=O)Nc1cc(-c2ccc(Cl)s2)sc1C(=O)O [Compound 57, 5′-CHLORO-4-(TOLUENE-2-SULFONYLAMINO)-[2,2′]BITHIOPHENYL-5-CARBOXYLIC ACID] | < 5 µM
26 | Cc1ccccc1S(=O)(=O)Nc1cc(-c2ccc(Cl)cc2Cl)sc1C(=O)O [Compound 58, 5-(2,4-DICHLORO-PHENYL)-3-(TOLUENE-2-SULFONYLAMINO)-THIOPHENE-2-CARBOXYLIC ACID] | 5 to 20 µM
27 | Cc1ccccc1S(=O)(=O)Nc1cc(-c2ccc([N+](=O)[O-])cc2)sc1C(=O)O [Compound 59, 5-(4-NITRO-PHENYL)-3-(TOLUENE-2-SULFONYLAMINO)-THIOPHENE-2-CARBOXYLIC ACID] | < 5 µM
28 | Cc1ccccc1S(=O)(=O)Nc1cc(-c2ccc(OC(F)(F)F)cc2)sc1C(=O)O [Compound 60, 3-(TOLUENE-2-SULFONYLAMINO)-5-(4-TRIFLUOROMETHOXY-PHENYL)-THIOPHENE-2-CARBOXYLIC ACID] | < 5 µM
29 | Cc1ccccc1S(=O)(=O)Nc1cc(-c2cccc3cccnc23)sc1C(=O)O [Compound 61, 5-QUINOLIN-8-YL-3-(TOLUENE-2-SULFONYLAMINO)-THIOPHENE-2-CARBOXYLIC ACID] | > 20 µM
30 | Cc1ccccc1S(=O)(=O)Nc1cc(-c2ccccc2)sc1C(=O)O [Compound 62, 5-PHENYL-3-(TOLUENE-2-SULFONYLAMINO)-THIOPHENE-2-CARBOXYLIC ACID] | < 5 µM
31 | Cc1ccccc1S(=O)(=O)Nc1cc(-c2cccc([N+](=O)[O-])c2)sc1C(=O)O [Compound 63, 5-(3-NITRO-PHENYL)-3-(TOLUENE-2-SULFONYLAMINO)-THIOPHENE-2-CARBOXYLIC ACID] | < 5 µM
32 | Cc1cccc(-c2cc(NS(=O)(=O)c3ccccc3C)c(C(=O)O)s2)c1 [Compound 64, 3-(TOLUENE-2-SULFONYLAMINO)-5-M-TOLYL-THIOPHENE-2-CARBOXYLIC ACID] | < 5 µM
33 | Cc1ccccc1S(=O)(=O)Nc1cc(-c2cccc(Cl)c2)sc1C(=O)O [Compound 65, 5-(3-CHLORO-PHENYL)-3-(TOLUENE-2-SULFONYLAMINO)-THIOPHENE-2-CARBOXYLIC ACID] | < 5 µM
34 | Cc1ccccc1S(=O)(=O)Nc1cc(-c2ccc(F)cc2)sc1C(=O)O [Compound 66, 5-(4-FLUORO-PHENYL)-3-(TOLUENE-2-SULFONYLAMINO)-THIOPHENE-2-CARBOXYLIC ACID] | < 5 µM
35 | Cc1ccccc1S(=O)(=O)Nc1cc(-c2cccc(F)c2)sc1C(=O)O [Compound 67, 5-(3-FLUORO-PHENYL)-3-(TOLUENE-2-SULFONYLAMINO)-THIOPHENE-2-CARBOXYLIC ACID] | < 5 µM
36 | Cc1ccccc1S(=O)(=O)Nc1cc(-c2ccc(Cl)cc2)sc1C(=O)O [Compound 68, 5-(4-CHLORO-PHENYL)-3-(TOLUENE-2-SULFONYLAMINO)-THIOPHENE-2-CARBOXYLIC ACID] | < 5 µM
37 | Cc1ccccc1S(=O)(=O)Nc1cc(-c2cc(F)cc(F)c2)sc1C(=O)O [Compound 69, 5-(3,5-DIFLUORO-PHENYL)-3-(TOLUENE-2-SULFONYLAMINO)-THIOPHENE-2-CARBOXYLIC ACID] | < 5 µM
38 | Cc1ccccc1S(=O)(=O)Nc1cc(-c2ccc(F)c(F)c2)sc1C(=O)O [Compound 70, 5-(3,4-DIFLUORO-PHENYL)-3-(TOLUENE-2-SULFONYLAMINO)-THIOPHENE-2-CARBOXYLIC ACID] | < 5 µM
39 | C=Cc1cc(NS(=O)(=O)c2ccccc2C)c(C(=O)O)s1 [Compound 71, 3-(TOLUENE-2-SULFONYLAMINO)-5-VINYL-THIOPHENE-2-CARBOXYLIC ACID] | 5 to 20 µM
40 | O=C(Nc1cc(-c2ccccc2)sc1C(=O)O)c1ccc(Cl)cc1 [Compound 72, 3-(4-CHLORO-BENZOYLAMINO)-5-PHENYL-THIOPHENE-2-CARBOXYLIC ACID] | 5 to 20 µM
41 | CN(C(=O)c1ccc(Cl)cc1)c1cc(-c2ccccc2)sc1C(=O)O [Compound 73, 3-[(4-CHLORO-BENZOYL)-METHYL-AMINO]-5-PHENYL-THIOPHENE-2-CARBOXYLIC ACID] | < 5 µM
42 | O=C(Nc1cc(-c2ccccc2)sc1C(=O)O)c1cccs1 [Compound 74, 5-PHENYL-3-[(THIOPHENE-2-CARBONYL)-AMINO]-THIOPHENE-2-CARBOXYLIC ACID] | 5 to 20 µM
43 | CN(C(=O)c1cccs1)c1cc(-c2ccccc2)sc1C(=O)O [Compound 75, 3-(METHYL-(THIOPHENE-2-CARBONYL)-AMINO]-5-PHENYL-THIOPHENE-2-CARBOXYLIC ACID] | 5 to 20 µM
44 | O=C(O)c1sc(-c2ccccc2)cc1NS(=O)(=O)c1ccccc1Br [Compound 76, 3-(2-BROMO-BENZENESULFONYLAMINO)-5-PHENYL-THIOPHENE-2-CARBOXYLIC ACID] | < 5 µM
